Laboratory results from patent US5194437A, “1,4-disubstituted piperazines” (Adir et Compagnie, priority 1990, dated 1993).
Like-named read-outs stand apart in the source and are kept apart here.

How the values were obtained:
[1] = target: T1, 5-HT1A receptors (Rattus norvegicus, UniProt P19327); test: Spontaneous tail flick test (STF), agonist and antagonist activity; assay type: in vivo, male Wistar rats; design: from tissue; host or cells: whole animal, male Wistar rat (in vivo); settings: for Spontaneous tail flicks M.E.D.: agonist: induction of STF, s.c., minimum effective dose; for ED50: rat, sc, 1 h, antagonist: inhibition of STF induced by 8-OH-DPAT 0.63 mg/kg s.c., compound s.c. 60 min before test, read-out: Spontaneous tail flicks ID50 (95% C.L.)
T1 sequence (P19327 1-422): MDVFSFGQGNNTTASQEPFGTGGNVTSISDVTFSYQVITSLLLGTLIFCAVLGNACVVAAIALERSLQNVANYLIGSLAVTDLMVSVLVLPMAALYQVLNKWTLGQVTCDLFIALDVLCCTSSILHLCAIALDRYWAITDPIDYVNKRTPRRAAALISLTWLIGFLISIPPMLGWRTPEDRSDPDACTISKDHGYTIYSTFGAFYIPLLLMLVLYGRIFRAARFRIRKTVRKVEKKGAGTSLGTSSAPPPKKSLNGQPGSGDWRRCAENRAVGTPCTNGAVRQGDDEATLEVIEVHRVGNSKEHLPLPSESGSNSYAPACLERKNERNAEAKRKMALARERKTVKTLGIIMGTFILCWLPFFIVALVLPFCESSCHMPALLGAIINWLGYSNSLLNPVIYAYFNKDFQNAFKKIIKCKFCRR
Description: (§1) The tests were carried out on male Wistar rats weighing from 200 to 220 g which had free access to food and drinking water, in standard cages.
(§2) The animals are housed individually for the hypothermia, corticosterone secretion and flat body posture tests, and in groups of three for the tail flick test.
(§3) The laboratory temperature is kept at 21°±1° C., with 60 ±5% humidity. The rats are subjected to a light/dark cycle of 12 hours/12 hours (the light cycle commencing at 7.30 a.m.).
(§4) a/ General procedure for tests of agonist and antagonist activities on 5-HT1A receptors.
(§5) The test compounds were administered subcutaneously (s.c.) 60 minutes before the start of the test, that is to say 30 minutes before the vehicle (agonist responses) or 8-OH-DPAT (antagonist responses).
(§6) In all the tests, the solvent is used in parallel as the control. The animals were allowed to rest in their cages during the time between the injections and evaluation.
(§7) For the agonist studies, the solvent was administered at a dose of 1 ml/kg s.c. 30 minutes before the start of the test. For the antagonist studies, doses of 8-OH-DPAT inducing sub-maximal responses were chosen, i.e. doses of 0.63, 0.16, 0.16 and 0.16 mg/kg s.c. for the tail flick test, the flat body posture test, the corticosterone secretion test and the hypothermia test, respectively.
Tail flicks were determined in animals restrained in horizontal, opaque plastics cylinders, the animals' tails hanging freely over the edge of the laboratory bench. After a 5-minute adaptation period, the number of movements made in 5 minutes is recorded. One STF is defined as the raising of the tail to a level higher than the level of the body axis [Millan M. J. et al., J. Pharmacol. Exp. Ther., 256, 973-982 (1990)].
(§8) In general, after variance analysis, the results are subjected to Dunnett's test. Results are regarded as significant if p<0.05.
(§9) The doses of the test compounds are all expressed in terms of the base. Unless otherwise mentioned, all the compounds were dissolved in sterile water (to which a few drops of lactic acid are added, if necessary) and administered at a volume of 1 ml/kg s.c..

[2] = target: T1, 5-HT1A receptors; test: Flat body posture (FBP), agonist response and antagonism of 8-OH-DPAT; assay type: in vivo, male Wistar rats; design: from tissue; host or cells: whole animal, male Wistar rat (in vivo); settings: sc
Description: as §1, §2, §3, §4, §5, §6, §7
(§10) The same animals were employed for the evaluation of the effect of the test compounds on the FBP and for the determination of the plasma levels of CS. All the tests were carried out in the morning between 10.30 and 12.30, i.e. when the cicardian levels of CS are at their lowest.
25 minutes after the treatment (i.e. 5 minutes before decapitation), the animals are observed in their cages and the presence or absence of FBP is noted.
(§11) The presence of FBP is defined by a characteristic posture of the animal. The animal is then in a position of ventral decubitus with the hind limbs clearly in extension. 5 minutes after observation of FBP, the animals are decapitated and the trunk blood is collected in chilled tubes containing 50 μl of a 10% EDTA solution. After centrifugation at 4000 rpm, the plasma is removed and stored at -30° C. until assay.
as §8
For the dose-response for induction and inhibition of FBP, the effective doses 50 (ED50) (doses at which 50% of the animals show a response) were calculated by the method of Litchfield and Wilcoxon.
as §9

[3] = target: T1, 5-HT1A receptors; test: Corticosterone secretion (CS), plasma, agonist and antagonist activity; assay type: in vivo, male Wistar rats; design: from tissue; host or cells: whole animal, male Wistar rat (in vivo); settings: for Corticosterone secretion M.E.D.: agonist: induction of CS, s.c., minimum effective dose; for ED50: rat, sc, 1 h, antagonist: inhibition of CS induced by 8-OH-DPAT 0.16 mg/kg s.c., compound s.c. 60 min before test, read-out: Corticosterone secretion ID50 (95% C.L.)
Description: as §1, §2, §3, §4, §5, §6, §7, §10, §11
CS was determined using a radio-competitive assay for a CS-binding protein in plasma: transcortin. The latter is obtained from monkey serum. Separation of the CS-transcortin complexes from free CS was effected by means of a solution of dextran and active charcoal. The detection limit was 50 pg/tube. Intra- and inter-assay variations were 5 and 15%, respectively [cf. Rivet J. M. et al., Eur. J. Pharmacol., 183, 634-635 (1990)].
Since the base levels of CS in plasma are never zero, the following formula was used to calculate the percentage inhibition of plasmatic CS induced by 8-OH-DPAT: [formula]
as §8, §9

[4] = target: T1, 5-HT1A receptors; test: Body temperature (hypothermia), agonist and antagonist activity; assay type: in vivo, male Wistar rats; design: from tissue; host or cells: whole animal, male Wistar rat (in vivo); settings: for Hypothermia M.E.D.: agonist: induction of hypothermia, s.c., minimum effective dose; for ED50: rat, sc, 1 h, antagonist: inhibition of hypothermia induced by 8-OH-DPAT 0.16 mg/kg s.c., compound s.c. 60 min before test, read-out: Hypothermia ID50 (95% C.L.)
Description: as §1, §2, §3, §4, §5, §6, §7
The rats are immobilised and a lubricated digital thermometer (Thermistoprobe from Testotherm, Basle, Switzerland) is inserted into the rectum to a depth of 5 cm. 30 seconds after insertion, the temperature is read off a digital scale. The percentage inhibition is calculated with the aid of the formula mentioned above.
as §8, §9

[5] = target: T1, 5-HT1A receptors; test: In vitro binding test, 5-HT1A receptors, [3]H-8-OH-DPAT, rat hippocampus membranes; design: Hippocampus from the brains of decapitated rats; from tissue; host or cells: rat hippocampus membranes (male Wistar); species or system rat (male Wistar)
Description: Hippocampus from the brains of decapitated rats was immediately frozen on dry ice and then stored at -80° C. until preparation of membranes. The tissue was homogenised at 4° C. in the appropriate buffer using a Polytron (Brinkman Instruments - Lucerne - Switzerland) and centrifuged at 20,000 rpm.
Incubation was carried out at 25° C. for 30 minutes. Non-specific binding was defined by 10 μM of 5-HT. The tests were terminated by rapid filtration by means of a Brandel harvester over glass-fibre filters pretreated with 0.1% polyethyleneimine.
The inhibitory concentration 50 values (IC50) were determined according to method 8 of Tallarida R. J. and Murray R. B., Manual of pharmacological calculations with computer programs, Springer Verlag, N.Y. (1987).
The pKi was calculated according to the formula [formula] where [L] is the concentration of the hot ligand ([3]H-8-OH-DPAT, 0.4 nM) and Kd is the apparent dissociation constant determined from saturation experiments.
The test substances were dissolved in the incubation buffer.

[6] = 1 h, read-out: Flat body posture ED50 (95% C.L.), antagonism of 8-OH-DPAT, inhibition of FBP, 8-OH-DPAT 0.16 mg/kg s.c., compound s.c. 60 min before test
[7] = induction of FBP, s.c., dose at which 50% of the animals show a response, read-out: Flat body posture ED50 (95% C.L.), agonist response
[8] = hot ligand [3]H-8-OH-DPAT 0.4 nM, rat hippocampus membranes, 25° C., 30 minutes, read-out: Affinity (pKi) (converted)

SMILES	Ki [5, 8] [nM]	Affinity (pKi) ([5]; hot ligand [3]H-8-OH-DPAT 0.4 nM, rat hippocampus membranes, 25° C., 30 minutes)	Spontaneous tail flicks M.E.D. [1] [mg/kg]	ED50 [1] [mg/kg]	ED50 [2, 6] [mg/kg]	ED50 [2, 7] [mg/kg]	Corticosterone secretion M.E.D. [3] [mg/kg]	ED50 [3] [mg/kg]	Hypothermia M.E.D. [4] [mg/kg]	ED50 [4] [mg/kg]	Ki [5] [nM]
c1ccc2c(c1)CC2CN1CCN(c2cccc3c2OCCO3)CC1 (racemic) [Example 1, (R,S)-4-(benzodioxan-5-yl)-1-[(benzocyclobutan-1-yl)methyl]-piperazine]	–	–	> 10.0	0.09	0.71	> 10	> 2.5	< 2.5	10.0	0.5	1.82
c1ccc2c(c1)CC2CCN1CCN(c2cccc3c2OCCO3)CC1 (racemic) [Example 2, (R,S)-4-(benzodioxan-5-yl)-1-[2-(benzocyclobutan-1-yl)-ethyl]-piperazine]	–	–	> 10.0	0.085	0.76	> 20	10.0	0.66	40.0	0.65	0.617
c1ccc2c(c1)CC2CCN1CCN(c2cccc3c2OCCCO3)CC1 (racemic) [Example 3, (R,S)-4-[benzo(1,5)dioxepin-6-yl]-1-[2-(benzocyclobutan-1-yl)-ethyl]-piperazine]	–	–	> 10.0	0.32	1.55	> 10	> 10.0	2.15	> 20.0	1.64	–
c1ccc2c(c1)CC2CCCCN1CCN(c2cccc3c2OCCO3)CC1 (racemic) [Example 8, (R,S)-4-(benzodioxan-5-yl)-1-[4-(benzocyclobutan-1-yl)-butyl]-piperazine]	–	–	–	–	–	–	–	–	–	–	1.58
c1ccc2c(c1)CC2CCCN1CCN(c2cccc3c2OCCO3)CC1 (racemic) [Example 13, (R,S)-4-(benzodioxan-5-yl)-1-[3-(benzocyclobutan-1-yl)-propyl]-piperazine]	–	–	> 10.0	0.13	0.57	> 10	10.0	1.27	10.0	0.21	–
c1ccc2c(c1)CCC2CN1CCN(c2cccc3c2OCCO3)CC1 (racemic) [Example 15, (R,S)-4-(benzodioxan-5-yl)-1-[(indan-1-yl)-methyl]-piperazine]	–	–	–	0.085	≥ 2.5	> 2.5	> 2.5	> 2.5	10.0	1.53	2
c1ccc2c(c1)CCC2CCN1CCN(c2cccc3c2OCCO3)CC1 (racemic) [Example 22, (R,S)-4-(benzodioxan-5-yl)-1-[2-(indan-1-yl)-ethyl]-piperazine]	–	–	> 10.0	0.74	1.03	> 10	> 10.0	1.92	> 40.0	1.19	–
c1ccc2c(c1)CCC2CCCN1CCN(c2cccc3c2OCCO3)CC1 (racemic) [Example 23, (R,S)-4-(benzodioxan-5-yl)-1-[3-(indan-1-yl)-propyl]piperazine]	–	–	–	0.56	0.29	10	> 2.5	< 2.5	5.0	0.4	–
c1ccc2c(c1)CC(N1CCN(c3cccc4c3OCCO4)CC1)C2 [Example 7, 4-(benzodioxan-5-yl)-1-(indan-2-yl)-piperazine]	–	8.75	> 10.0	0.74	0.52	> 10	> 10.0	2.5	20.0	1.6	–
C1=C(CCN2CCN(c3cccc4c3OCCO4)CC2)c2ccccc2C1 [Example 18, 4-(benzodioxan-5-yl)-1-[2-(ind-1-en-1-yl)-ethyl]-piperazine]	–	–	–	–	–	–	–	–	–	–	0.813

More lines, main results first:

Ki [5, 8] [nM]	Affinity (pKi) ([5]; hot ligand [3]H-8-OH-DPAT 0.4 nM, rat hippocampus membranes, 25° C., 30 minutes)	SMILES	Spontaneous tail flicks M.E.D. [1] [mg/kg]	ED50 [1] [mg/kg]	ED50 [2, 6] [mg/kg]	ED50 [2, 7] [mg/kg]	Corticosterone secretion M.E.D. [3] [mg/kg]	ED50 [3] [mg/kg]	Hypothermia M.E.D. [4] [mg/kg]	ED50 [4] [mg/kg]	Ki [5] [nM]
1.41	–	COc1ccc2c(c1)C(CCN1CCN(c3cccc4c3OCCO4)CC1)C2 (racemic) [Example 16, (R,S)-4-(benzodioxan-5-yl)-1-[2-(5-methoxybenzocyclobutan-1-yl)-ethyl]-piperazine]	–	–	–	–	–	–	–	–	–
3.47	–	COc1cc2c(cc1OC)C(CCN1CCN(c3cccc4c3OCCO4)CC1)C2 (racemic) [Example 17, (R,S)-4-(benzodioxan-5-yl)-1-[2-(4,5-dimethoxybenzocyclobutan-1-yl)-ethyl]-piperazine]	–	–	–	–	–	–	–	–	–
1.48	–	COc1cc2c(cc1OC)C(CCN1CCN(c3cccc4c3OCCO4)CC1)CC2 (racemic) [Example 19, (R,S)-4-(benzodioxan-5-yl)-1-[2-(5,6-dimethoxyindan-1-yl)-ethyl]-piperazine]	–	–	–	–	–	–	–	–	–
